According to the supplement of paper PMC11061612:

Assays:
Assay in all cases: combination Emax (second highest fraction inhibited in the dose matrix, 72 h); higher = more inhibition; extreme values may be limits of the assay
[1] = system: HOP-92 (Non-Small Cell Lung Carcinoma)
Outline: (§1)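 After 24 hours at 37°C and 5% CO2 in 1536-well plates, cells in DMEM/F12 or RPMI plus 10% FBS received two-drug dose matrices for 72 hours. Viability came from CellTiter-Glo 2.0 luminescence and was scaled as inhibition, anchored at 0 by vehicle wells and at 1 by blank wells. Combination Emax is taken as the second-highest inhibition in the matrix, and Bliss excess as the observed combination effect less EA + EB − EA·EB, with EA and EB the single-agent effects.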

[2] = system: U-118-MG (Low Grade Glioma)
Outline: as §1

[3] = system: EFM-192A (Breast Carcinoma)
Outline: as §1

[4] = system: SKN-3 (Head and Neck Carcinoma)
Outline: as §1

[5] = system: SNU-61 (Colorectal Carcinoma)
Outline: as §1

[6] = system: HuO9 (Osteosarcoma)
Outline: as §1

[7] = system: HLE (Hepatocellular Carcinoma)
Outline: as §1

[8] = system: BICR78 (Oral Cavity Carcinoma)
Outline: as §1

[9] = system: P31-FUJ (Acute Myeloid Leukemia)
Outline: as §1

[10] = system: NOMO-1 (Acute Myeloid Leukemia)
Outline: as §1

[11] = system: HCT-116 (Colorectal Carcinoma)
Outline: as §1

[12] = system: PA-TU-8902 (Pancreatic Carcinoma)
Outline: as §1

[13] = system: KG-1 (Acute Myeloid Leukemia)
Outline: as §1

[14] = system: Saos-2 (Osteosarcoma)
Outline: as §1

[15] = system: GDM-1 (Acute Myeloid Leukemia)
Outline: as §1

[16] = system: YT (Other Blood Carcinomas)
Outline: as §1

[17] = system: D-392MG (Glioblastoma)
Outline: as §1

[18] = system: NCI-H1688 (Small Cell Lung Carcinoma)
Outline: as §1

[19] = system: RCC10RGB (Kidney Carcinoma)
Outline: as §1

[20] = system: CAL-39 (Other Solid Carcinomas)
Outline: as §1

COc1cc2ncnc(Nc3ccc(F)c(Cl)c3)c2cc1OCCCN1CCOCC1 [Gefitinib] + CC(C)n1c(=O)n(C)c2cnc3cc(F)c(-c4ccc(OCCCN5CCCCC5)nc4)cc3c21 [AZD1390] (first compound max 10 µM, 7x7, partner max 0.3 µM)
combination Emax [1]: 0.229
combination Emax [2]: 0.0987
combination Emax [3]: 0.262
combination Emax [4]: 0.236
combination Emax [5]: 0.18
combination Emax [6]: 0.12
combination Emax [7]: 0.101
combination Emax [8]: 0.286
combination Emax [9]: 0.455
combination Emax [10]: 0.328
combination Emax [11]: 0.133
combination Emax [12]: 0.14
combination Emax [13]: 0.182
combination Emax [14]: 0.184
combination Emax [15]: 0.131
combination Emax [16]: 0.185
combination Emax [17]: 0.084
combination Emax [18]: 0.233
combination Emax [19]: 0.563
combination Emax [20]: 0.833

CS(=O)(=O)CCNCc1ccc(-c2ccc3ncnc(Nc4ccc(OCc5cccc(F)c5)c(Cl)c4)c3c2)o1 [Lapatinib] + C[C@@H](Oc1cc(-c2cnn(C3CCNCC3)c2)cnc1N)c1c(Cl)ccc(F)c1Cl [Crizotinib] (first compound max 10 µM, 7x7, partner max 10 µM)
combination Emax [1]: 0.937
combination Emax [2]: 0.491
combination Emax [3]: 0.878
combination Emax [4]: 0.738
combination Emax [5]: 0.697
combination Emax [6]: 0.982
combination Emax [7]: 0.537
combination Emax [8]: 0.918
combination Emax [9]: 0.957
combination Emax [10]: 0.828
combination Emax [11]: 0.956
combination Emax [12]: 0.775
combination Emax [13]: 0.49
combination Emax [14]: 0.889
combination Emax [15]: 0.913
combination Emax [16]: 0.939
combination Emax [17]: 0.498
combination Emax [18]: 0.742
combination Emax [19]: 0.908
combination Emax [20]: 1

CC(=O)c1c(C)c2cnc(Nc3ccc(N4CCNCC4)cn3)nc2n(C2CCCC2)c1=O [Palbociclib] + CC1(C)CCC(CN2CCN(c3ccc(C(=O)NS(=O)(=O)c4ccc(NCC5CCOCC5)c([N+](=O)[O-])c4)c(Oc4cnc5[nH]ccc5c4)c3)CC2)=C(c2ccc(Cl)cc2)C1 [Venetoclax] (first compound max 10 µM, 7x7, partner max 1 µM)
combination Emax [1]: 0.145
combination Emax [2]: 0.229
combination Emax [3]: 0.165
combination Emax [4]: 0
combination Emax [5]: 0.152
combination Emax [6]: 0.406
combination Emax [7]: 0.0796
combination Emax [8]: 0.092
combination Emax [9]: 0.364
combination Emax [10]: 0.596
combination Emax [11]: 0.559
combination Emax [12]: 0.245
combination Emax [13]: 0.85
combination Emax [14]: 0.197
combination Emax [15]: 0.892
combination Emax [16]: 0.504
combination Emax [17]: 0.223
combination Emax [18]: 0.0922
combination Emax [19]: 0.476
combination Emax [20]: 0.255

CC(=O)c1c(C)c2cnc(Nc3ccc(N4CCNCC4)cn3)nc2n(C2CCCC2)c1=O [Palbociclib] + Cc1c2c(nn1C)CSCc1cc(n(C)n1)CSc1cc(c3ccccc3c1)OCCCc1c(C(=O)O)n(C)c3c-2c(Cl)ccc13 [AZD5991] (first compound max 10 µM, 7x7, partner max 1 µM)
combination Emax [1]: 0.293
combination Emax [2]: 0.322
combination Emax [3]: 0.436
combination Emax [4]: 0.244
combination Emax [5]: 0.171
combination Emax [6]: 0.803
combination Emax [7]: 0.211
combination Emax [8]: 0.232
combination Emax [9]: 0.907
combination Emax [10]: 0.858
combination Emax [11]: 0.663
combination Emax [12]: 0.283
combination Emax [13]: 0.894
combination Emax [14]: 0.332
combination Emax [15]: 0.824
combination Emax [16]: 1
combination Emax [17]: 0.4
combination Emax [18]: 0.381
combination Emax [19]: 0.419
combination Emax [20]: 0.409

CC(=O)c1c(C)c2cnc(Nc3ccc(N4CCNCC4)cn3)nc2n(C2CCCC2)c1=O [Palbociclib] + Cn1cnc2c(F)c(Nc3ccc(Br)cc3Cl)c(C(=O)NOCCO)cc21 [Selumetinib] (first compound max 10 µM, 7x7, partner max 10 µM)
combination Emax [1]: 0.458
combination Emax [2]: 0.296
combination Emax [3]: 0.169
combination Emax [4]: 0.349
combination Emax [5]: 0.447
combination Emax [6]: 0.419
combination Emax [7]: 0.143
combination Emax [8]: 0.315
combination Emax [9]: 0.475
combination Emax [10]: 0.858
combination Emax [11]: 0.851
combination Emax [12]: 0.416
combination Emax [13]: 0.481
combination Emax [14]: 0.232
combination Emax [15]: 0.555
combination Emax [16]: 0.606
combination Emax [17]: 0.262
combination Emax [18]: 0.147
combination Emax [19]: 0.547
combination Emax [20]: 0.775

COc1cccc(OCCCN)c1-c1cc(Nc2cnc(C#N)cn2)n[nH]1 [Prexasertib] + C=CCn1c(=O)c2cnc(Nc3ccc(N4CCN(C)CC4)cc3)nc2n1-c1cccc(C(C)(C)O)n1 [AZD1775] (first compound max 1 µM, partner max 1 µM)
combination Emax [1]: 0.7
combination Emax [2]: 0.743
combination Emax [3]: 0.416
combination Emax [4]: 0.771
combination Emax [5]: 0.515
combination Emax [6]: 0.954
combination Emax [7]: 0.881
combination Emax [8]: 0.713
combination Emax [9]: 1
combination Emax [10]: 1
combination Emax [11]: 0.921
combination Emax [12]: 0.605
combination Emax [13]: 0.916
combination Emax [14]: 0.935
combination Emax [15]: 0.945
combination Emax [16]: 0.971
combination Emax [17]: 0.66
combination Emax [18]: 0.838
combination Emax [19]: 0.6
combination Emax [20]: 0.694
